Source: ChEMBL document CHEMBL3885861, “Open TG-GATES”

Species: Rattus norvegicus
Experiment: Open TG-GATES - Regimen: Single
Format: toxicity, organism-based, Sprague-Dawley
Set-up: regimen Single, gender Male, age 6 weeks
Details: in vivo, po, 30 mg/kg, route gavage, dose level Low; for APTT / Bas / Eos / Fbg / Hb / Ht / Lym / MCH / MCHC / MCV / Mono / Neu / PT / Plat / RBC / Ret / WBC: tissue Blood; for KIDNEY_L / KIDNEY_R / KIDNEY_TOTAL: tissue Kidney; for LIVER: tissue Liver; for A/G / ALP / ALT / AST / BUN / CRE / Ca / Cl / DBIL / GLC / IP / K / LDH / Na / PL / RALB / TBIL / TC / TG / TP / gamma-GTP: tissue Plasma

CC[C@H]1[C@@H]2C[C@H]3[C@@H]4N(C)c5ccccc5[C@]45C[C@@H]([C@@H]2[C@H]5O)N3[C@@H]1O [AJMALINE]
TERMINAL_BW (3 h): 194.7 g | APTT (3 h): 16.9 s | Bas (3 h): 0% | Eos (3 h): 1% | Fbg (3 h): 196.4 mg/dL | Hb (3 h): 12.8 g/dL | Ht (3 h): 39.1% | Lym (3 h): 78.6% | MCH (3 h): 21.7 pg | MCHC (3 h): 32.8% | MCV (3 h): 66.3 fL | Mono (3 h): 8.8% | Neu (3 h): 12% | PT (3 h): 11.6 s | Plat (3 h): 121.5 x10_4/uL | RBC (3 h): 590.6 x10_4/ul | Ret (3 h): 12.4% | WBC (3 h): 114.3 x10_2/uL | KIDNEY_L (3 h): 0.9 g | KIDNEY_R (3 h): 0.9 g | KIDNEY_TOTAL (3 h): 1.8 g | LIVER (3 h): 9.1 g | A/G (3 h): 2.3 | ALP (3 h): 821 IU/L | ALT (3 h): 34.8 IU/L | AST (3 h): 69.8 IU/L | BUN (3 h): 12.2 mg/dL | CRE (3 h): 0.4 mg/dL | Ca (3 h): 11.3 mg/dL | Cl (3 h): 102.4 meq/L | DBIL (3 h): 0.052 mg/dL | GLC (3 h): 193.6 mg/dL | IP (3 h): 9 mg/dL | K (3 h): 4.5 meq/L | LDH (3 h): 108 IU/L | Na (3 h): 137.8 meq/L | PL (3 h): 141.6 mg/dL | RALB (3 h): 3.7 g/dL | TBIL (3 h): 0.4 mg/dL | TC (3 h): 77.4 mg/dL | TG (3 h): 55.8 mg/dL | TP (3 h): 5.3 g/dL | gamma-GTP (3 h): 1.6 IU/L | TERMINAL_BW (6 h): 190.9 g | APTT (6 h): 17.2 s | Bas (6 h): 0% | Eos (6 h): 1.2% | Fbg (6 h): 205 mg/dL | Hb (6 h): 12.8 g/dL | Ht (6 h): 38.9% | Lym (6 h): 74% | MCH (6 h): 22.2 pg | MCHC (6 h): 33% | MCV (6 h): 67.2 fL | Mono (6 h): 7% | Neu (6 h): 18.2% | PT (6 h): 11.8 s | Plat (6 h): 114.2 x10_4/uL | RBC (6 h): 578.4 x10_4/ul | Ret (6 h): 11.9% | WBC (6 h): 89.1 x10_2/uL | KIDNEY_L (6 h): 0.9 g | KIDNEY_R (6 h): 0.9 g | KIDNEY_TOTAL (6 h): 1.8 g | LIVER (6 h): 8.4 g | A/G (6 h): 2 | ALP (6 h): 865.4 IU/L | ALT (6 h): 40.6 IU/L | AST (6 h): 70 IU/L | BUN (6 h): 9 mg/dL | CRE (6 h): 0.5 mg/dL | Ca (6 h): 10.8 mg/dL | Cl (6 h): 102.6 meq/L | DBIL (6 h): 0.068 mg/dL | GLC (6 h): 195.8 mg/dL | IP (6 h): 9.7 mg/dL | K (6 h): 4.6 meq/L | LDH (6 h): 104.8 IU/L | Na (6 h): 138.8 meq/L | PL (6 h): 141.4 mg/dL | RALB (6 h): 3.5 g/dL | TBIL (6 h): 0.4 mg/dL | TC (6 h): 82.8 mg/dL | TG (6 h): 46.8 mg/dL | TP (6 h): 5.3 g/dL | gamma-GTP (6 h): 1.6 IU/L | TERMINAL_BW (9 h): 190.6 g | APTT (9 h): 17.1 s | Bas (9 h): 0% | Eos (9 h): 1% | Fbg (9 h): 201.2 mg/dL | Hb (9 h): 12.6 g/dL | Ht (9 h): 38.1% | Lym (9 h): 70.4% | MCH (9 h): 21.6 pg | MCHC (9 h): 33% | MCV (9 h): 65.6 fL | Mono (9 h): 8% | Neu (9 h): 21% | PT (9 h): 12.1 s | Plat (9 h): 119.4 x10_4/uL | RBC (9 h): 580.8 x10_4/ul | Ret (9 h): 10.6% | WBC (9 h): 83.7 x10_2/uL | KIDNEY_L (9 h): 0.9 g | KIDNEY_R (9 h): 0.9 g | KIDNEY_TOTAL (9 h): 1.8 g | LIVER (9 h): 8.1 g | A/G (9 h): 2.2 | ALP (9 h): 827.2 IU/L | ALT (9 h): 34.6 IU/L | AST (9 h): 64.6 IU/L | BUN (9 h): 12.2 mg/dL | CRE (9 h): 0.6 mg/dL | Ca (9 h): 10.4 mg/dL | Cl (9 h): 104.8 meq/L | DBIL (9 h): 0.1 mg/dL | GLC (9 h): 199.2 mg/dL | IP (9 h): 10.3 mg/dL | K (9 h): 5 meq/L | LDH (9 h): 108.2 IU/L | Na (9 h): 139 meq/L | PL (9 h): 132 mg/dL | RALB (9 h): 3.6 g/dL | TBIL (9 h): 0.4 mg/dL | TC (9 h): 82.2 mg/dL | TG (9 h): 48.4 mg/dL | TP (9 h): 5.2 g/dL | gamma-GTP (9 h): 0.8 IU/L | TERMINAL_BW (24 h): 210.7 g | APTT (24 h): 16.3 s | Bas (24 h): 0% | Eos (24 h): 1% | Fbg (24 h): 225 mg/dL | Hb (24 h): 12.8 g/dL | Ht (24 h): 38.6% | Lym (24 h): 75.8% | MCH (24 h): 21.7 pg | MCHC (24 h): 33.2% | MCV (24 h): 65.3 fL | Mono (24 h): 7.6% | Neu (24 h): 15.2% | PT (24 h): 11.5 s | Plat (24 h): 112.6 x10_4/uL | RBC (24 h): 590.8 x10_4/ul | Ret (24 h): 10.5% | WBC (24 h): 105.8 x10_2/uL | KIDNEY_L (24 h): 1 g | KIDNEY_R (24 h): 1 g | KIDNEY_TOTAL (24 h): 2 g | LIVER (24 h): 10.6 g | A/G (24 h): 2.1 | ALP (24 h): 875.4 IU/L | ALT (24 h): 36.8 IU/L | AST (24 h): 66.2 IU/L | BUN (24 h): 15.8 mg/dL | CRE (24 h): 0.6 mg/dL | Ca (24 h): 11.2 mg/dL | Cl (24 h): 100.8 meq/L | DBIL (24 h): 0.016 mg/dL | GLC (24 h): 207.6 mg/dL | IP (24 h): 8.4 mg/dL | K (24 h): 4.5 meq/L | LDH (24 h): 120.6 IU/L | Na (24 h): 140 meq/L | PL (24 h): 156.4 mg/dL | RALB (24 h): 3.8 g/dL | TBIL (24 h): 0.3 mg/dL | TC (24 h): 86.4 mg/dL | TG (24 h): 114.4 mg/dL | TP (24 h): 5.6 g/dL | gamma-GTP (24 h): 1.4 IU/L
